Source: US8318799B2, “Therapeutic agent for substance dependence” (National University Corporation Kyushu University, priority 2004, dated 2012)

Key:
male Wister/ST rats [1] = test: methamphetamine-seeking behavior induced by drug-associated cue (drug self-administration procedure, after extinction); type: in vivo, rat; details: for antagonism in cue-induced methamphetamine-seeking behavior on coadministration with the compound of the present invention: 30 minutes before cue, FIG. 7
Text: (§1) First, an experimental animal is allowed to learn the drug self-administration behavior of pressing a lever to attain a substance. The animal is given a substance-containing solution simultaneously with a light-tone stimulus. After the animal is allowed to learn the substance self-administration behavior, the substance-containing solution is replaced by physiological saline. The behavior of eagerly pressing the lever for acquiring the substance comes to be observed in the experimental animal having learned the substance self-administration behavior. This behavior is regarded as substance-seeking behavior. […] However, the substance-seeking behavior will recur by the same light-tone stimulus (drug-associated stimuli) used during the self-administration training to the experimental animal or by administrating a substance inducing the central stimulant effect. This experimental system was used to examine the effect of various compounds.
(§2) Using methamphetamine as an addictive substance, the following experiments were carried out according to a method described in Neuropsychopharmacology, 29, 1470-1478 (2004).
(§3) A catheter for self-administration of methamphetamine (inner diameter of 0.5 mm, outer diameter of 1.0 mm) was inserted into the right jugular vein of male Wister/ST rats (250 to 350 g), and the end of the catheter was anchored to just outside the right atrium. An operant box used in the experiment was equipped with 2 levers. One is an active lever by which when pressed once (fixed-ratio 1 (FR1)), infusions of a very low dose of methamphetamine (0.02 mg per injection) was paired with onset of a 6-sec tone (70 dB/7 kHz) and light (300 lux) compound stimulus.
(§4) After the animal was allowed to get methamphetamine self-administration behavior (methamphetamine-taking behavior) by the self-administration experiment for 10 days (2 hours per session), physiological saline was substituted for methamphetamine, to carry out an extinction process for 5 days (1 hour per session without drug-associated cue).
On day 6 of the extinction process, substance-seeking behavior (“craving”) was induced by drug-associated cue (tone and light) or by administering a low dose of methamphetamine (1.0 mg/kg, intraperitoneal (i.p.) administration).
Thirty minutes before this stimulation with the drug-associated cue or by the administration of a low dose of methamphetamine, […] administration of the compound of the present invention (0.32, 1.0 mg/kg, i.p.) was carried out, and a change in the methamphetamine-seeking behavior induced by drug-associated cue or by forced administration of methamphetamine was observed. […]

male Wister/ST rats [2] = test: methamphetamine-seeking behavior induced by forced administration of a low dose of methamphetamine (drug self-administration procedure, after extinction); type: in vivo, rat
Text: as §1, §2, §3
as §4, with “cue). […]” for “cue).”

male Wister/ST rats [3] = test: influence on methamphetamine-taking behavior (methamphetamine self-administration); type: in vivo, rat; details: 1.0 mg/kg intraperitoneally; FIG. 5
Text: FIG. 5 is a graph showing the influence of the compound of the present invention on methamphetamine self-administration.
as §3, §4
For examining the influence of the compound of the present invention on methamphetamine-taking behavior, 1.0 mg/kg of the compound of the present invention was administered intraperitoneally.

male Wister/ST rats [4] = test: influence on occurrence of substance-seeking behavior by the compound itself; type: in vivo, rat; details: high dose 10 mg/kg i.p.; FIG. 6
[5] = Eur. J. Pharmacol. 421, 181-189 (2001); cited from earlier work

CN1CCc2cc(Cl)c(O)cc2[C@@H](c2ccccc2)C1.Cl [SCH23390, R-(+)-7-chloro-8-hydroxy-3-methyl-1-phenyl-2,3,4,5-tetrahydro-1H-3-benza zepine hydrochloride, reference compound]
antagonism in cue-induced methamphetamine-seeking behavior on coadministration with the compound of the present invention (male Wister/ST rats [1]; SCH23390 0.0001 mg/kg s.c. with the compound of the present invention (0.32, 1.0 mg/kg i.p.)): showed a tendency to be antagonized

CCCNC(CCC)Cc1cc2ccccc2o1 (single isomer, unassigned; (-)) [the compound of the present invention, (−)-1-(benzofuran-2-yl)-2-propylaminopentane]
methamphetamine-seeking behavior induced by drug-associated cue (male Wister/ST rats [1]; repeated administration 1.0 mg/kg i.p. in the extinction process for 5 days, FIG. 3): suppressed significantly
methamphetamine-seeking behavior (number of active lever-pressings, 30 minutes) induced by drug-associated cue (male Wister/ST rats [1]; single administration 0.32, 1.0 mg/kg i.p., 30 minutes before stimulation, day 6 of extinction, FIG. 1): suppressed significantly and dose-dependently
methamphetamine-seeking behavior induced by forced administration of methamphetamine (male Wister/ST rats [2]; repeated administration 1.0 mg/kg i.p. in the extinction process for 5 days, FIG. 4): suppressed significantly
methamphetamine-seeking behavior (number of active lever-pressings, 30 minutes) induced by forced administration of methamphetamine (male Wister/ST rats [2]; single administration 0.32, 1.0 mg/kg i.p., 30 minutes before methamphetamine 1.0 mg/kg i.p., day 6 of extinction, FIG. 2): suppressed significantly and dose-dependently
influence on methamphetamine-taking behavior (number of active lever pressings for self-administration) (male Wister/ST rats [3]): did not exert any influence
occurrence of methamphetamine-seeking behavior after the compound alone (male Wister/ST rats [4]): although weak, caused methamphetamine-seeking behavior
reduction in spontaneous motor activity induced by reserpine [5]: improves

CCN1CCCC1CNC(=O)c1cc(S(=O)(=O)CC)ccc1OC (stereo not shown) [sultopride, reference compound]
antagonism in cue-induced methamphetamine-seeking behavior on coadministration with the compound of the present invention (male Wister/ST rats [1]; sultopride 10 mg/kg i.p. with the compound of the present invention (0.32, 1.0 mg/kg i.p.)): not
antagonism in methamphetamine-induced methamphetamine-seeking behavior on coadministration with the compound of the present invention (male Wister/ST rats [2]; sultopride 10 mg/kg i.p. with the compound of the present invention (0.32, 1.0 mg/kg i.p.), 30 minutes before low dose of methamphetamine, FIG. 8): not
